Assay results from patent publication US11331364B2, “Use for JNK inhibitor molecules for treatment of various diseases” (Xigen Inflammation Ltd., priority 2014, dated 2022).
Square brackets hold non-standard residues; d marks the D form. Peptide text beside a SMILES is read from it.

Tests used:
hJNK2 = hJNK2 (Homo sapiens, UniProt P45984); experiment: hJNK2 | IC50; details: read-out: hJNK2 | IC50
Method in brief: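 JNK inhibitors tested as fusion proteins of a JNK-inhibitory (poly)peptide and a transporter sequence; IC50 reported in the nM range with SEM and number of experiments.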

hJNK1 = molecular target: T1, hJNK1 (Homo sapiens, UniProt P45983); experiment: hJNK1 | IC50; details: read-out: hJNK1 | IC50
T1 construct: His; purchased Upstate 14-327

[1] = system: Primary Rat Whole Blood Cells; experiment: LPS-induced TNFα release in rat whole blood; format: cell-based; details: LPS 3 ng/ml; 1, 3, 10 μM
Procedure: Given are the results for the control, 1 μM of SEQ ID NO: 172, 3 μM of SEQ ID NO: 172, and 10 μM of SEQ ID NO: 172 at different levels of LPS (ng/ml).
Whole blood is collected from anesthetized rat or human healthy volunteers using a venipuncture connected to a pre-labeled vacuum tube containing sodium citrate. Tubes are gently mixed by inversion 7-8 times; and are then kept at RT until stimulation. JNK inhibitor of SEQ ID NO: 172 is prepared 6 times concentrated in PBS, and 30 μl/well of mix is added into 96-well plate. Whole blood is diluted by 1:2 in PBS and 120 μl of diluted blood is added in each well where either PBS alone or JNK inhibitor of SEQ ID NO: 172 has been previously added. Whole blood is incubated at 37° C.; 85 rpm (Stuart Orbital incubator SI500) for 60 min. Activators (LPS) are the prepared, 30 μl/well of LPS, 6 times concentrated. After 60 min incubation, LPS is added to the blood, blood is mixed by pipetting up and down, and then kept for 4 h under agitation (85 rpm), at 37° C. After the 4 h incubation, the plates are centrifuged at about 770 g, 4° C. for 15 min in a pre-cooled centrifuge. […] Cytokine (IL-6, IL-2, IFNγ and TNFα) were then measured using standard Elisa kits (e.g. from R&D Systems: DuoSet Elisas; or from BD Biosciences: BD Opteia Set Elisa). Results are expressed as pg/ml of supernatant of the measured cytokine.

[2] = system: Imiquimod-induced psoriasis in mice; experiment: Imiquimod-induced psoriasis, ear histopathology; format: in vivo, mouse
Procedure: Female BALB/cAnNCrl mice (Charles River, age 8 to 10 weeks at study start) have been assigned to the following groups (treatment schedule):
In this experiment, two positive controls have been utilized. Firstly, Prednisolone at 10 mg/kg (vehicle: 1% Hydroxyethylcellulose, 0.25% Polysorbate 80, and 0.05% Antifoam in purified water) has been dosed daily and orally (group “Prednisolone”). Secondly, Dexamethasone has been administered at 0.5 mg/kg (vehicle: sterile 0.9% NaCl) on days 1, 4 and 7 via intravenous route.
On day 8, animals have been sacrificed and the tissue (ear) has been fixed in 10% neutral buffered formalin. For histopathology hematoxylin-and-eosin-stained sections (cross cut) have been prepared and microscopic evaluation on the collected tissues from all animals has been performed. Methods and end-points for histopathology were similarly described in the van der Fits (2009) paper in that inflammation, epidermal hyperplasia, epidermal hyperkeratosis (rather than parakeratosis) were observed and recorded for severity grade, whereby the respective methodology from Van der Fits et al. (The Journal of Immunology 2009, 182, P. 5836-5845) is hereby incorporated by reference. Histopathology grading scores were excluded for either skin or ear in animals with secondary inflammatory processes (full thickness epidermal ulcers). Scores were averaged by group and standard deviation and statistical significance were calculated. […] Formalin-fixed, paraffin embedded skin from the dorsal surface of the mouse (BALB/c) was stained with hematoxylin and eosin (H&E) stain and assessed microscopically. An important difference from the above reference and to describe in more detail the observations of the present study: Hyperkeratosis can be defined specifically as orthokeratotic (no retained nuclei) or parakeratotic (retained nuclei). Either can occur normally in various anatomical locations and depending on species; however, both conditions are well defined in particular disease states. The van der Fits paper describes their Imiquimod (IMQ)-induced psoriasis model as causing parakeratotic hyperkeratosis similar to what is seen in the human condition, and that was a defined end-point for this study. However, the Danilenko et al. (Veterinary Pathology 2008 45:563) has shown that many rodent psoriasis models have orthokeratotic hyperkeratosis. […] The more general term ‘hyperkeratosis’ was used for grading end-points and describe in the text what type was seen (primarily orthokeratotic).
Microscopic Histopathology end-points were graded as such: […]

T1 sequence (P45983 whole entry, looked up): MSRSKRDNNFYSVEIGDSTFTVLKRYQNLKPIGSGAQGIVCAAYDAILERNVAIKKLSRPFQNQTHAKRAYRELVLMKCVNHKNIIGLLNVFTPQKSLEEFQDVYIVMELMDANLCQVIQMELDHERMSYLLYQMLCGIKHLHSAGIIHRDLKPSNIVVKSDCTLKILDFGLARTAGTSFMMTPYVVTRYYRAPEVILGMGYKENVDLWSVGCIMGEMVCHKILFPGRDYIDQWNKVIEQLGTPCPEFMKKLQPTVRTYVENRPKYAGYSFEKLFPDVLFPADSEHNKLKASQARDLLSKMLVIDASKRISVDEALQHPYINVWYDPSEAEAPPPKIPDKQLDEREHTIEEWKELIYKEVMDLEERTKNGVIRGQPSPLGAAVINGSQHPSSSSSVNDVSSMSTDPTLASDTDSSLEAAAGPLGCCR
Chain of hJNK2 (P45984 whole entry, looked up, the tested form may be a part): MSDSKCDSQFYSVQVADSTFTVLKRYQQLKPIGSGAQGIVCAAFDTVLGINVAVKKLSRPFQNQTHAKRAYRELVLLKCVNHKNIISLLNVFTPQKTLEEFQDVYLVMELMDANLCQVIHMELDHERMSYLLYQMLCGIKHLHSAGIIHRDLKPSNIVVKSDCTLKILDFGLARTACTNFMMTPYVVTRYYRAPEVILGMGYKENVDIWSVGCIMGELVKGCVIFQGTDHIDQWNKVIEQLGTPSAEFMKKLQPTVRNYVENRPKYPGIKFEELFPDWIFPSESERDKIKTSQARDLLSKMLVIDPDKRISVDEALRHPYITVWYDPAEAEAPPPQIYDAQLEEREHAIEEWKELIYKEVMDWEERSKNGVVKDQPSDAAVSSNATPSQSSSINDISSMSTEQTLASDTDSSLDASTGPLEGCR

`CC(C)C[C@H](NC(=O)[C@H](CC(N)=O)NC(=O)[C@H](CC(C)C)NC(=O)[C@@H](NC(=O)[C@@H](C)NC(=O)[C@@H]1CCCN1C(=O)[C@H](CCCNC(=N)N)NC(=O)[C@@H](CCCCN)NC(=O)[C@@H]1CCCN1C(=O)[C@H](CCCNC(=N)N)NC(=O)[C@@H](CCCNC(=N)N)NC(=O)[C@H](CCCNC(=N)N)NC(=O)[C@H](CCCNC(=N)N)NC(=O)[C@H](CCC(N)=O)NC(=O)[C@@H](CCCNC(=N)N)NC(=O)[C@H](CCCNC(=N)N)NC(=O)[C@H](CCCCN)NC(=O)[C@H](CCCCN)NC(=O)[C@H](N)CCCNC(=N)N)[C@@H](C)O)C(=O)N[C@H](Cc1ccccc1)C(N)=O` [SEQ ID NO: 172, rKKRrQRRrRPkRPaTLNLf] (H-[dR]KKR[dR]QRR[dR]RP[dK]RP[dA]TLNL[dF]-NH2; N-terminus assumed) was tested, and the IC50 (hJNK2) was 54.7 nM, the IC50 (hJNK1) was 722 nM and the “LPS-induced TNFα release” value [1] was “blocks LPS-induced TNFα release”. The “epidermal hyperkeratosis of the ear (average grades)” value ([2]; 0.02 mg/kg IV days 1, 4, 7) was “minimally decreased average grades”, the “epidermal hyperplasia of the ear” value ([2]; 0.2 mg/kg IV days 1, 4, 7) was “Minimal decreases in epidermal hyperplasia of the ear” and the “inflammation of the ear (average grade) vs vehicle-IMQ” value (from here on “inflammation … vs vehicle-IMQ”) ([2]; 0.2 mg/kg IV days 1, 4, 7) was “decreased inflammation of the ear”. The “inflammation … vs vehicle-IMQ” value ([2]; 0.2 mg/kg IV days 1, 4, 7, listed as XG-104) was “significant differences from the vehicle control group” and the “inflammation … vs vehicle-IMQ” value ([2]; 2 mg/kg IV days 1, 4, 7) was “decreased inflammation of the ear”.
